Earlier results as cited in patent US9447074B2, “Compounds” (Glaxo Group Limited, priority 2011, dated 2016).

Legend:
allergic rhinitis [1] = conditions: dosed intranasally, phase I/II
allergic rhinitis [2] = conditions: phase II
[3] = test system: B-Cell non-Hodgkin's lymphoma (NHL)
B lymphoma (BKS-2) = conditions: murine model of B lymphoma (BKS-2)

Oc1cccc(Nc2ncc(F)c(Nc3cccc(O)c3)n2)c1 [Example R112]
PGD2 (allergic rhinitis [1]): statistically significant decrease
clinical safety (allergic rhinitis [1]): safe across a range of indicators
efficacy versus placebo (allergic rhinitis [2]): lack of efficacy versus placebo

COc1cc(Nc2ncc(F)c(Nc3ccc4c(n3)N(COP(=O)(O)O)C(=O)C(C)(C)O4)n2)cc(OC)c1OC [Example R788, fostamatinib disodium]
therapeutic benefit ([3]; patients with DLBCL and CLL/SLL): therapeutic benefit
tolerability ([3]; patients with relapsed or refractory B-Cell NHL): well-tolerated

COc1cc(/C=C/C(=O)CC(=O)/C=C/c2ccc(O)c(OC)c2)ccc1O [curcumin]
tumour burden as measured by the total splenocyte number (B lymphoma (BKS-2)): significant reduction of tumour burden
